Data from PubChem BioAssay AID192 (DTP/NCI, 2004).
Where “and” joins values, the source holds several entries; their conditions need not be identical. Identical values can stand only once. Inconclusive results and toxic doses are left out. Square brackets hold non-standard residues; d marks the D form. Peptide text beside a SMILES is read from it. * marks the point of attachment. ξ: configuration not given here. Cbz = O=C(OCc1ccccc1)*; ξV = CC(C)C(N)C(=O)O; Sar = CNCC(=O)O

Test system: BDF1 mice, B16 melanoma ip, median survival T/C
Test: NCI In Vivo Anticancer Drug Screen. Data for tumor model B16 Melanoma (intraperitoneal) in B6D2F1 (BDF1) mice
Conditions: endpoint: median survival time, higher = longer survival
How it was run: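 Transplantable tumor model; survival or tumor size measured; reported as T/C, treated over vehicle control.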

[1] = dose: 20.0 mg/kg/injection, schedule: Q01DX009 (ip), vehicle: saline with Tween-80
[2] = dose: 40.0 mg/kg/injection, schedule: Q01DX009 (ip), vehicle: saline with Tween-80
[3] = dose: 100.0 mg/kg/injection, schedule: Q01DX009 (ip), vehicle: saline with Tween-80
[4] = dose: 200.0 mg/kg/injection, schedule: Q01DX009 (ip), vehicle: saline with Tween-80
[5] = dose: 400.0 mg/kg/injection, schedule: Q01DX009 (ip), vehicle: saline with Tween-80
[6] = dose: 100.0 mg/kg/injection, schedule: Q01DX009 (ip), vehicle: saline
[7] = dose: 200.0 mg/kg/injection, schedule: Q01DX009 (ip), vehicle: saline
[8] = dose: 50.0 mg/kg/injection, schedule: Q01DX009 (ip), vehicle: Klucel (hydroxypropylcellulose) (HPC)
[9] = dose: 100.0 mg/kg/injection, schedule: Q01DX009 (ip), vehicle: Klucel (hydroxypropylcellulose) (HPC)
[10] = dose: 100.0 mg/kg/injection, schedule: Q04DX003 (ip), vehicle: Klucel (hydroxypropylcellulose) (HPC)
[11] = dose: 200.0 mg/kg/injection, schedule: Q04DX003 (ip), vehicle: Klucel (hydroxypropylcellulose) (HPC)
[12] = dose: 12.5 mg/kg/injection, schedule: Q01DX009 (ip), vehicle: saline
[13] = dose: 25.0 mg/kg/injection, schedule: Q01DX009 (ip), vehicle: saline
[14] = dose: 50.0 mg/kg/injection, schedule: Q01DX009 (ip), vehicle: saline

COc1ccccc1CC(C)N (stereo not drawn)
T/C [1]: 97 % of control
T/C [2]: 95 % of control

COc1cccnc1/C=N/NC(N)=S
T/C (dose: 1.5 mg/kg/injection, schedule: Q01DX009 (ip), vehicle: saline with Tween-80): 98 % of control
T/C (dose: 3.0 mg/kg/injection, schedule: Q01DX009 (ip), vehicle: saline with Tween-80): 93 % of control
T/C (dose: 6.0 mg/kg/injection, schedule: Q01DX009 (ip), vehicle: saline with Tween-80): 95 % of control
T/C (dose: 12.0 mg/kg/injection, schedule: Q01DX009 (ip), vehicle: saline with Tween-80): 98 % of control

COc1ccc2c(c1OC)C(=O)O[C@@H]2[C@H]1c2cc3c(cc2CCN1C)OCO3
T/C (dose: 10.0 mg/kg/injection, schedule: Q01DX009 (ip), vehicle: saline): 112 % of control
T/C (dose: 20.0 mg/kg/injection, schedule: Q01DX009 (ip), vehicle: saline): 108 % of control
T/C (dose: 40.0 mg/kg/injection, schedule: Q01DX009 (ip), vehicle: saline): 98 % of control
T/C (dose: 80.0 mg/kg/injection, schedule: Q01DX009 (ip), vehicle: saline): 109 % of control

CCC1(CC)CCC(Br)C(Br)C1 (stereo not drawn)
T/C [3]: 95 % of control
T/C [4]: 105 % of control
T/C [5]: 102 % of control

O=C1C=CC(=O)N1Cc1ccco1
T/C (dose: 65.0 mg/kg/injection, schedule: Q01DX009 (ip), vehicle: saline): 108 % of control
T/C [6]: 103 % of control and 117 % of control
T/C (dose: 150.0 mg/kg/injection, schedule: Q01DX009 (ip), vehicle: saline): 114 % of control and 117 % of control
T/C [7]: 113 % of control
T/C (dose: 400.0 mg/kg/injection, schedule: Q01DX009 (ip), vehicle: saline): 113 % of control

COc1cc2ccc(/C=N/NC(N)=S)cc2cc1OC
T/C (dose: 25.0 mg/kg/injection, schedule: Q01DX009 (ip), vehicle: other): 117 % of control
T/C (dose: 50.0 mg/kg/injection, schedule: Q01DX009 (ip), vehicle: other): 108 % of control
T/C (dose: 100.0 mg/kg/injection, schedule: Q01DX009 (ip), vehicle: other): 109 % of control
T/C (dose: 200.0 mg/kg/injection, schedule: Q01DX009 (ip), vehicle: other): 96 % of control

CCC1OC(=O)CC(O)C(C)C(OC2OC(C)CC(N(C)C)C2O)C(CC=O)CC(C)C(=O)/C=C/C2(C)OC2C1C (stereo not drawn)
T/C [8]: 88 % of control
T/C [9]: 92 % of control

COc1cc2[nH]c(C)c(CCN3CCN(c4ccccc4)CC3)c2cc1OC
T/C (dose: 0.04 mg/kg/injection, schedule: Q01DX009 (ip), vehicle: Klucel (hydroxypropylcellulose) (HPC)): 107 % of control
T/C (dose: 0.09 mg/kg/injection, schedule: Q01DX009 (ip), vehicle: Klucel (hydroxypropylcellulose) (HPC)): 92 % of control
T/C (dose: 0.19 mg/kg/injection, schedule: Q01DX009 (ip), vehicle: Klucel (hydroxypropylcellulose) (HPC)): 93 % of control
T/C (dose: 0.39 mg/kg/injection, schedule: Q01DX009 (ip), vehicle: Klucel (hydroxypropylcellulose) (HPC)): 106 % of control
T/C (dose: 0.78 mg/kg/injection, schedule: Q01DX009 (ip), vehicle: Klucel (hydroxypropylcellulose) (HPC)): 102 % of control

CCCN(CCC)CC(C)=O
T/C [10]: 107 % of control
T/C [11]: 97 % of control

S=C=NCC(Br)CBr (stereo not drawn)
T/C (dose: 6.25 mg/kg/injection, schedule: Q01DX009 (ip), vehicle: Klucel (hydroxypropylcellulose) (HPC)): 86 % of control
T/C (dose: 12.5 mg/kg/injection, schedule: Q01DX009 (ip), vehicle: Klucel (hydroxypropylcellulose) (HPC)): 86 % of control

O=C1OC(=O)C2C3C=CC(C3=C(c3ccccc3)c3ccccc3)C12 (stereo not drawn)
T/C (dose: 0.78 mg/kg/injection, schedule: Q04DX009 (ip), vehicle: Klucel (hydroxypropylcellulose) (HPC)): 115 % of control
T/C (dose: 1.56 mg/kg/injection, schedule: Q04DX009 (ip), vehicle: Klucel (hydroxypropylcellulose) (HPC)): 121 % of control
T/C (dose: 3.13 mg/kg/injection, schedule: Q04DX009 (ip), vehicle: Klucel (hydroxypropylcellulose) (HPC)): 106 % of control

OC(CBr)C(O)C(O)C(O)CBr (stereo not drawn)
T/C [12]: 110 % of control
T/C [1]: 107 % of control
T/C [13]: 107 % of control
T/C (dose: 25.9 mg/kg/injection, schedule: Q01DX009 (ip), vehicle: saline with Tween-80): 109 % of control
T/C [2]: 100 % of control
T/C (dose: 43.2 mg/kg/injection, schedule: Q01DX009 (ip), vehicle: saline with Tween-80): 105 % of control
T/C [14]: 120 % of control and 107 % of control
T/C (dose: 72.0 mg/kg/injection, schedule: Q01DX009 (ip), vehicle: saline with Tween-80): 116 % of control
T/C (dose: 80.0 mg/kg/injection, schedule: Q01DX009 (ip), vehicle: saline with Tween-80): 108 % of control
T/C [3]: 103 % of control and 120 % of control
T/C [6]: 107 % of control
T/C (dose: 120.0 mg/kg/injection, schedule: Q01DX009 (ip), vehicle: saline with Tween-80): 101 % of control
T/C (dose: 160.0 mg/kg/injection, schedule: Q01DX009 (ip), vehicle: saline with Tween-80): 115 % of control
T/C [4]: 113 % of control and 114 % of control
T/C [7]: 117 % of control and 110 % of control
T/C (dose: 300.0 mg/kg/injection, schedule: Q01DX009 (ip), vehicle: saline with Tween-80): 82 % of control
T/C (dose: 555.8 mg/kg/injection, schedule: Q01DX009 (ip), vehicle: saline with Tween-80): 55 % of control
T/C (dose: 800.0 mg/kg/injection, schedule: Q01DX009 (ip), vehicle: saline with Tween-80): 112 % of control

O=C(O)C(O)C(=O)O.[NH-]C1CCCCC1[NH-].[Pt+2]
T/C (dose: 20.0 mg/kg/injection, schedule: Q01DX009 (ip), vehicle: other): 161 % of control
T/C (dose: 40.0 mg/kg/injection, schedule: Q01DX009 (ip), vehicle: other): 150 % of control

Cc1cccc(NS(=O)(=O)c2ccc(Cl)cc2)c1C
T/C (dose: 75.0 mg/kg/injection, schedule: Q01DX009 (ip), vehicle: Klucel (hydroxypropylcellulose) (HPC)): 91 % of control
T/C (dose: 150.0 mg/kg/injection, schedule: Q01DX009 (ip), vehicle: Klucel (hydroxypropylcellulose) (HPC)): 95 % of control
T/C (dose: 300.0 mg/kg/injection, schedule: Q01DX009 (ip), vehicle: Klucel (hydroxypropylcellulose) (HPC)): 90 % of control

O=[N+]([O-])c1cc(S(=O)(=O)OCC2CO2)ccc1Cl (stereo not drawn)
T/C (dose: 0.1 mg/kg/injection, schedule: Q01DX009 (ip), vehicle: saline with Tween-80): 100 % of control
T/C (dose: 0.2 mg/kg/injection, schedule: Q01DX009 (ip), vehicle: saline with Tween-80): 93 % of control
T/C (dose: 0.4 mg/kg/injection, schedule: Q01DX009 (ip), vehicle: saline with Tween-80): 97 % of control
T/C (dose: 0.8 mg/kg/injection, schedule: Q01DX009 (ip), vehicle: saline with Tween-80): 95 % of control

CCc1ccc(NC(=O)Nc2ccccc2C)cc1
T/C [10]: 96 % of control
T/C [11]: 96 % of control
T/C (dose: 400.0 mg/kg/injection, schedule: Q04DX003 (ip), vehicle: Klucel (hydroxypropylcellulose) (HPC)): 100 % of control

O=C(O)CCC(NC(=O)OCc1ccccc1)C(=O)OCc1ccccc1 (stereo not drawn)
T/C [8]: 86 % of control
T/C [9]: 86 % of control
T/C (dose: 200.0 mg/kg/injection, schedule: Q01DX009 (ip), vehicle: Klucel (hydroxypropylcellulose) (HPC)): 96 % of control

ClN=C(c1ccccc1)c1ccccc1
T/C (dose: 25.0 mg/kg/injection, schedule: Q01DX009 (ip), vehicle: Klucel (hydroxypropylcellulose) (HPC)): 105 % of control
T/C [8]: 105 % of control

C=C1C(=O)OC2CC(C)C3C=CC(=O)C3CC12 (stereo not drawn)
T/C (dose: 0.5 mg/kg/injection, schedule: Q01DX009 (ip), vehicle: Klucel (hydroxypropylcellulose) (HPC)): 101 % of control
T/C (dose: 1.0 mg/kg/injection, schedule: Q01DX009 (ip), vehicle: Klucel (hydroxypropylcellulose) (HPC)): 109 % of control
T/C (dose: 2.0 mg/kg/injection, schedule: Q01DX009 (ip), vehicle: Klucel (hydroxypropylcellulose) (HPC)): 101 % of control

CC(O)C(O)C(O)C(/C=N\N=C(/N)[S-])=N/N=C(\N)[S-].[Pt+2] (stereo not drawn)
T/C [3]: 95 % of control
T/C [4]: 102 % of control
T/C [5]: 105 % of control

CCCCCCCCCCCCCCCCCCOC(=O)Cc1ccc(N(CCCl)CCCl)cc1
T/C (dose: 180.0 mg/kg/injection, schedule: Q04DX003 (ip), vehicle: saline with Tween-80): 102 % of control
T/C (dose: 266.0 mg/kg/injection, schedule: Q04DX003 (ip), vehicle: saline with Tween-80): 107 % of control

CC(C)C(NC(=O)CN(C)C(=O)OCc1ccccc1)C(=O)O (stereo not drawn) (Cbz-[Sar]-[ξV]-OH)
T/C (dose: 6.25 mg/kg/injection, schedule: Q01DX009 (ip), vehicle: saline): 96 % of control
T/C [12]: 104 % of control
T/C [13]: 93 % of control
T/C [14]: 97 % of control and 101 % of control
